Tests used:
MCF7 [1] = test: Mammosphere formation assay (3D-mammosphere assay); assay type: cell-based, human; settings: for inhibition of MCF7 cells in the mammosphere assay compared to parent compound: concentrations from 1 μM to 100 μM; for SI (mammosphere/monolayer MCF7): mammosphere selectivity index, ratio between IC50 values in the 3D and 2D assays against MCF7
Excerpt: As used in the tables, “IC50 (MCF7 mammosphere)” refers to the half maximal inhibitory concentration in the 3D-mammosphere assay, using the ER+ breast cancer cell line, MCF7. The term “IC50 (MCF7 monolayer)” refers to the half maximal inhibitory concentration in the 2D-cell viability assay, using the ER+ breast cancer cell line, MCF7. The term “IC50 (BJ1 monolayer)” refers to the half maximal inhibitory concentration in the 2D-cell viability assay, using the immortalized non-tumoral fibroblast cell line, hTERT-BJ1. The term “SI (mammosphere/monolayer MCF7)” refers to the mammosphere selectivity index, a ratio between IC50 values comparing the biological activity in the 3D and 2D assays against MCF7. The term “SI (BJ1/MCF7 monolayer)” refers to the cancer selectivity index, a ratio between IC50 values comparing the biological activity in the cell viability assays against MCF7 and hTERT-BJ1.
FIGS. 1-3 are dose-response curves for various compounds described herein, using the mammosphere assay. The assay was performed using the MCF7 cell line. The curves are plotted as a mean of two independent experiments, and the standard deviation for each point is represented by vertical bars. The inhibition percentage is shown as a function of the log of the concentration (μM). […] Similar effects are expected for compounds having the general formula [1D].
With respect to cell culture and reagents, the human breast adenocarcinoma cell line (MCF-7) was from the American Type Culture Collection (ATCC). hTERT-BJ1 cells were from Clontech, Inc. MCF-7 and hTERT-BJ1 cells were grown in DMEM supplemented with 10% fetal bovine serum, GlutaMAX and 1% penicillin-streptomycin and incubated at 37C in a humidified 5% CO2 incubator. The medium was changed 2-3 times/week.
Mammosphere formation assay: A single cell suspension was prepared using enzymatic (lx Trypsin-EDTA, Sigma Aldrich, cat. #T3924), and manual disaggregation (25 gauge needle). Five thousand cells were plated with in mammosphere medium (DMEM-F12/B27/20 ng/ml EGF/PenStrep), under non-adherent conditions, in six wells plates coated with 2-hydroxyethylmethacrylate (poly-HEMA, Sigma, cat. #P3932). Cells were grown for 5 days and maintained in a humidified incubator at 37° C. at an atmospheric pressure in 5% (v/v) carbon dioxide/air. After 5 days, 3D spheroids with a diameter greater than 50 μm were counted using a microscope, fitted with a graticule eye-piece, and the percentage of cells which formed spheroids was calculated and normalized to one (1=100% MFE; mammosphere forming efficiency). Mammosphere assays were performed in triplicate and repeated three times independently.

MCF7 [2] = test: Hoechst-based 2D-cell viability assay, MCF7 monolayer; parameters: species or system human
Excerpt: As used in the tables, “IC50 (MCF7 mammosphere)” refers to the half maximal inhibitory concentration in the 3D-mammosphere assay, using the ER+ breast cancer cell line, MCF7. The term “IC50 (MCF7 monolayer)” refers to the half maximal inhibitory concentration in the 2D-cell viability assay, using the ER+ breast cancer cell line, MCF7. The term “IC50 (BJ1 monolayer)” refers to the half maximal inhibitory concentration in the 2D-cell viability assay, using the immortalized non-tumoral fibroblast cell line, hTERT-BJ1. The term “SI (mammosphere/monolayer MCF7)” refers to the mammosphere selectivity index, a ratio between IC50 values comparing the biological activity in the 3D and 2D assays against MCF7. The term “SI (BJ1/MCF7 monolayer)” refers to the cancer selectivity index, a ratio between IC50 values comparing the biological activity in the cell viability assays against MCF7 and hTERT-BJ1. […] Cell viability was assessed using Hoechst 33342, a nuclear dye that stains DNA in live cells. The viability of normal human fibroblasts (hTERT-BJ1) treated with the compounds described herein was also assessed in parallel. Quantitation was performed with a plate-reader.

hTERT-BJ1 = test: Hoechst-based 2D-cell viability assay, hTERT-BJ1 monolayer; parameters: species or system human; settings: for toxicity in the non-tumoral cell line hTERT-BJ1: up to the concentration of 90 μM
Excerpt: As used in the tables, “IC50 (MCF7 mammosphere)” refers to the half maximal inhibitory concentration in the 3D-mammosphere assay, using the ER+ breast cancer cell line, MCF7. The term “IC50 (MCF7 monolayer)” refers to the half maximal inhibitory concentration in the 2D-cell viability assay, using the ER+ breast cancer cell line, MCF7. The term “IC50 (BJ1 monolayer)” refers to the half maximal inhibitory concentration in the 2D-cell viability assay, using the immortalized non-tumoral fibroblast cell line, hTERT-BJ1. The term “SI (mammosphere/monolayer MCF7)” refers to the mammosphere selectivity index, a ratio between IC50 values comparing the biological activity in the 3D and 2D assays against MCF7. The term “SI (BJ1/MCF7 monolayer)” refers to the cancer selectivity index, a ratio between IC50 values comparing the biological activity in the cell viability assays against MCF7 and hTERT-BJ1. With respect to cell culture and reagents, the human breast adenocarcinoma cell line (MCF-7) was from the American Type Culture Collection (ATCC). hTERT-BJ1 cells were from Clontech, Inc. MCF-7 and hTERT-BJ1 cells were grown in DMEM supplemented with 10% fetal bovine serum, GlutaMAX and 1% penicillin-streptomycin and incubated at 37C in a humidified 5% CO2 incubator. The medium was changed 2-3 times/week. A Hoechst-based viability assay was used to characterize the selectivity of compounds according to the present approach, for the preferential targeting of cancer cells. Briefly, MCF7 cell monolayers were treated with a compound at concentrations ranging from 1 μM to 100 μM, for a period of one day. Cell viability was assessed using Hoechst 33342, a nuclear dye that stains DNA in live cells. The viability of normal human fibroblasts (hTERT-BJ1) treated with the compounds described herein was also assessed in parallel. Quantitation was performed with a plate-reader.

## CCCCCCCCCCCCCC(=O)N1CCN(c2ccc(Nc3ncc4c(C)c(C(C)=O)c(=O)n(C5CCCC5)c4n3)nc2)CC1 [Compound [2C], 6-acetyl-8-cyclopentyl-5-methyl-2-[[5-(4-tetradecanoylpiperazin-1-yl)-2-pyridyl]amino]pyrido[2,3-d]pyrimidin-7-one]
MCF7 [1]
  inhibition of MCF7 cells in the mammosphere assay compared to parent compound: remarkably improved inhibition
MCF7 [2]; MCF7 monolayer, up to a concentration of 30 μM
  toxicity in the 2D-cell viability assay: non-toxic
hTERT-BJ1
  toxicity in the non-tumoral cell line hTERT-BJ1: non-toxic

## CC(=O)c1c(C)c2cnc(Nc3ccc(N4CCNCC4)cn3)nc2n(C2CCCC2)c1=O [Palbociclib, 6-acetyl-8-cyclopentyl-5-methyl-2-(5-piperazin-1-yl-pyridin-2-ylamino)-8H-pyrido[2,3-d]pyrimidin-7-one, reference compound]
MCF7 [1]
  SI (mammosphere/monolayer MCF7): non-selective
hTERT-BJ1
  toxicity in the non-tumoral cell line hTERT-BJ1: non-toxic

## CCCCCCCCCCCCCC(=O)N1CCN(c2ccc(Nc3ncc4cc(C(=O)N(C)C)n(C5CCCC5)c4n3)nc2)CC1 [Compound [1C], 7-cyclopentyl-N,N-dimethyl-2-[[5-(4-tetradecanoylpiperazin-1-yl)-2-pyridyl]amino]pyrrolo[2,3-d]pyrimidine-6-carboxamide]
MCF7 [1]; IC50 ratio vs. Ribociclib
  improvement in potency in the 3D-mammosphere assay compared to the parent compound: 7 fold
MCF7 [1]
  inhibition of MCF7 cells in the mammosphere assay compared to parent compound: remarkably improved inhibition
MCF7 [2]; Hoechst staining assay, MCF7, each concentration
  potency against MCF7 cells compared to parent compound (dose-response curves, FIG. 4): more potent
hTERT-BJ1
  toxicity in the non-tumoral cell line hTERT-BJ1: non-toxic

## CN(C)C(=O)c1cc2cnc(Nc3ccc(N4CCNCC4)cn3)nc2n1C1CCCC1 [Ribociclib, 7-cyclopentyl-N,N-dimethyl-2-[(5-piperazin-1-ylpyridin-2-yl)amino]pyrrolo[2,3-d]pyrimidine-6-carboxamide]
hTERT-BJ1; Hoechst staining assay, hTERT-BJ1
  potency on hTERT-BJ1 compared to Compound [1C] (dose-response curves, FIG. 7): more potent at most concentrations tested
hTERT-BJ1
  toxicity in the non-tumoral cell line hTERT-BJ1: non-toxic

## CCN1CCN(Cc2ccc(Nc3ncc(F)c(-c4cc(F)c5nc(C)n(C(C)C)c5c4)n3)nc2)CC1 [Abemaciclib, N-[5-[(4-ethylpiperazin-1-yl)methyl]pyridin-2-yl]-5-fluoro-4-(7-fluoro-2-methyl-3-propan-2-ylbenzimidazol-5-yl)pyrimidin-2-amine, reference compound]
MCF7 [1]
  SI (mammosphere/monolayer MCF7): >250
hTERT-BJ1; Homo sapiens, Table 3, unit inferred, 2D-cell viability assay, hTERT-BJ1
  IC50: 30 ± 6 µM
